Laboratory results reported in patent US5843889A, “Glycopeptide antibiotic derivatives” (Eli Lilly and Company, priority 1997, dated 1998).
Values after ≈ are worked out from the molar mass of the structure shown.

Key:
Format in all cases: cell-based
Lactobacillus confusus = assay: MIC, agar dilution on brain-heart infusion agar
Leuconostoc lactis = assay: MIC, agar dilution on brain-heart infusion agar; settings: Leuconostoc lactis (mean of 2)
Pedicoccus acidilacti = assay: MIC, agar dilution on brain-heart infusion agar; settings: Pedioccccus acidilacti (mean of 10)
Pediococcus pentosaceus = assay: MIC, agar dilution on brain-heart infusion agar; settings: Pediococcus pentosaceus (mean of 2)
[1] = tested on: Leuconostoc pseudomesenteroides; assay: MIC, agar dilution on brain-heart infusion agar
[2] = tested on: Entercoccus gallinarum 245; assay: MIC, standard broth micro-dilution assay
Experimental: (§1) The formula I compounds have in vitro and in vivo activity against Gram-positive pathogenic bacteria. The MIC's were determined using a standard broth micro-dilution assay.

Entercoccus faecalis 276 = assay: MIC, standard broth micro-dilution assay
Experimental: as §1

[3] = tested on: Entercoccus faecalis 2041; assay: MIC, standard broth micro-dilution assay
Experimental: as §1

[4] = tested on: Leuconostoc mesenteroides; assay: MIC, agar dilution on brain-heart infusion agar; settings: Leuconostoc mesenteroides (mean of 4)
[5] = tested on: Staphylococcus aureus SA1199B
Experimental: (§2) The MIC's were determined using a standard broth micro-dilution assay.

[6] = tested on: Staphylococcus aureus S13E
Experimental: as §2

[7] = tested on: Staphylococcus aureus 446; assay: MIC, standard broth micro-dilution assay
Experimental: as §2

[8] = tested on: Staphylococcus aureus X400; assay: MIC, standard broth micro-dilution assay
Experimental: as §2

[9] = tested on: Staphylococcus aureus 491; assay: MIC, standard broth micro-dilution assay
Experimental: as §2

Entercoccus faecium 180 = assay: MIC, standard broth micro-dilution assay
Experimental: as §2

[10] = tested on: Staphylococcus haemolyticus 105; assay: MIC, standard broth micro-dilution assay
Experimental: as §2

[11] = tested on: Haemophilus influenzae RD; assay: MIC, standard broth micro-dilution assay
Experimental: as §2

[12] = tested on: Staphylococcus epidermidis 270; assay: MIC, standard broth micro-dilution assay
Experimental: as §2

[13] = tested on: Streptococcus pneumoniae P1; assay: MIC, standard broth micro-dilution assay
Experimental: as §2

[14] = tested on: Staphylococcus haemolyticus 415; assay: MIC, standard broth micro-dilution assay
Experimental: as §2

[15] = tested on: Staphylococcus aureus 489; assay: MIC, standard broth micro-dilution assay
Experimental: as §2

[16] = tested on: Entercoccus faecium 180-1; assay: MIC, standard broth micro-dilution assay
Experimental: as §2

[17] = tested on: Staphylococcus aureus SA1199; assay: MIC, standard broth micro-dilution assay
Experimental: as §2

Escherichia coli EC14 = assay: MIC, standard broth micro-dilution assay
Experimental: as §2

[18] = tested on: Staphylococcus aureus SA1199A; assay: MIC, standard broth micro-dilution assay
Experimental: as §2

[19] = tested on: Staphylococcus aureus 447; assay: MIC, standard broth micro-dilution assay
Experimental: as §2

[20] = tested on: Staphylococcus aureus X778; assay: MIC, standard broth micro-dilution assay
Experimental: as §2

Leuconostoc citreum = assay: MIC, agar dilution on brain-heart infusion agar

| MIC (Lactobacillus confusus) | MIC (Leuconostoc lactis) | MIC (Pedicoccus acidilacti) | MIC (Pediococcus pentosaceus) | MIC [1] | MIC [4] | SMILES | MIC [2] | MIC (Entercoccus faecalis 276) | MIC [3] | MIC (Leuconostoc citreum) | also measured |
| --- | --- | --- | --- | --- | --- | --- | --- | --- | --- | --- | --- |
| 32 µg/mL (≈ 18 µM) | 16 µg/mL (≈ 9.02 µM) | 7.5 µg/mL (≈ 4.23 µM) | 16 µg/mL (≈ 9.02 µM) | 32 µg/mL (≈ 18 µM) | 16 µg/mL (≈ 9.02 µM) | CNC(CC(C)C)C(=O)NC1C(=O)NC(CC(N)=O)C(=O)NC2C(=O)NC3C(=O)NC(C(=O)NC(C(=O)O)c4cc(O)cc(O)c4-c4cc3ccc4O)C(OC3CC(C)(N)C(O)C(C)O3)c3ccc(c(Cl)c3)Oc3cc2cc(c3OC2OC(CO)C(O)C(O)C2OC2CC(C)(NCc3ccc(Oc4ccccc4)cc3)C(O)C(C)O2)Oc2ccc(cc2Cl)C1O (stereo not shown) [Compound 4, p-phenoxybenzyl.cndot.A82846B] | ≤ 0.06 µg/mL | ≤ 0.06 µg/mL | ≤ 0.06 µg/mL |  |  |
| 16 µg/mL (≈ 9.1 µM) | 4.0 µg/mL (≈ 2.27 µM) | 5.9 µg/mL (≈ 3.35 µM) | 11 µg/mL (≈ 6.25 µM) | 32 µg/mL (≈ 18.2 µM) | 16 µg/mL (≈ 9.1 µM) | CNC(CC(C)C)C(=O)NC1C(=O)NC(CC(N)=O)C(=O)NC2C(=O)NC3C(=O)NC(C(=O)NC(C(=O)O)c4cc(O)cc(O)c4-c4cc3ccc4O)C(OC3CC(C)(N)C(O)C(C)O3)c3ccc(c(Cl)c3)Oc3cc2cc(c3OC2OC(CO)C(O)C(O)C2OC2CC(C)(NCc3ccc(-c4ccccc4)cc3)C(O)C(C)O2)Oc2ccc(cc2Cl)C1O (stereo not shown) [Compound 2, p-phenylbenzyl.cndot.A82846B] | ≤ 0.06 µg/mL | 0.5 µg/mL (≈ 0.284 µM) |  |  |  |
| 16 µg/mL (≈ 8.93 µM) | 8.0 µg/mL (≈ 4.47 µM) | 12 µg/mL (≈ 6.7 µM) | 23 µg/mL (≈ 12.8 µM) | 32 µg/mL (≈ 17.9 µM) | 10 µg/mL (≈ 5.58 µM) | CNC(CC(C)C)C(=O)NC1C(=O)NC(CC(N)=O)C(=O)NC2C(=O)NC3C(=O)NC(C(=O)NC(C(=O)O)c4cc(O)cc(O)c4-c4cc3ccc4O)C(OC3CC(C)(N)C(O)C(C)O3)c3ccc(c(Cl)c3)Oc3cc2cc(c3OC2OC(CO)C(O)C(O)C2OC2CC(C)(NCc3ccc(Sc4ccccc4)cc3)C(O)C(C)O2)Oc2ccc(cc2Cl)C1O (stereo not shown) [Compound 108, 4-thiophenylbenzyl] | ≤ 0.06 µg/mL | 0.5 µg/mL (≈ 0.279 µM) | ≤ 0.06 µg/mL |  |  |
| 16 µg/mL (≈ 9.04 µM) | 16 µg/mL (≈ 9.04 µM) |  | 16 µg/mL (≈ 9.04 µM) |  | 16 µg/mL (≈ 9.04 µM) | CNC(CC(C)C)C(=O)NC1C(=O)NC(CC(N)=O)C(=O)NC2C(=O)NC3C(=O)NC(C(=O)NC(C(=O)O)c4cc(O)cc(O)c4-c4cc3ccc4O)C(OC3CC(C)(N)C(O)C(C)O3)c3ccc(c(Cl)c3)Oc3cc2cc(c3OC2OC(CO)C(O)C(O)C2OC2CC(C)(NCc3ccc4c(c3)Cc3ccccc3-4)C(O)C(C)O2)Oc2ccc(cc2Cl)C1O (stereo not shown) [Compound 32, 2-fluorenylmethyl] |  |  |  | 64 µg/mL (≈ 36.1 µM) |  |
|  |  |  |  |  |  | CNC(CC(C)C)C(=O)NC1C(=O)NC(CC(N)=O)C(=O)NC2C(=O)NC3C(=O)NC(C(=O)NC(C(=O)O)c4cc(O)cc(O)c4-c4cc3ccc4O)C(OC3CC(C)(N)C(O)C(C)O3)c3ccc(c(Cl)c3)Oc3cc2cc(c3OC2OC(CO)C(O)C(O)C2OC2CC(C)(NCC3CC=CCC3)C(O)C(C)O2)Oc2ccc(cc2Cl)C1O (stereo not shown) [Compound 47, 3,4 cyclohexenylmethyl] | 16 µg/mL (≈ 9.49 µM) | ≤ 0.06 µg/mL | ≤ 0.06 µg/mL |  | MIC [5]: 0.25 µg/mL (≈ 0.148 µM); MIC [6]: ≤ 0.06 µg/mL; MIC [7]: 0.125 µg/mL (≈ 0.0741 µM); MIC [8]: ≤ 0.06 µg/mL; MIC [9]: 0.5 µg/mL (≈ 0.296 µM); MIC (Entercoccus faecium 180): 2 µg/mL (≈ 1.19 µM); MIC [10]: 4 µg/mL (≈ 2.37 µM); MIC [11]: > 64 µg/mL; MIC [12]: 1 µg/mL (≈ 0.593 µM); MIC [13]: ≤ 0.06 µg/mL; MIC [14]: 16 µg/mL (≈ 9.49 µM); MIC [15]: ≤ 0.06 µg/mL; MIC [16]: ≤ 0.06 µg/mL; MIC [17]: 0.5 µg/mL (≈ 0.296 µM); MIC (Escherichia coli EC14): > 64 µg/mL; MIC [18]: 0.25 µg/mL (≈ 0.148 µM); MIC [19]: 2 µg/mL (≈ 1.19 µM); MIC [20]: ≤ 0.06 µg/mL |
| 16 µg/mL (≈ 9.06 µM) | 8.0 µg/mL (≈ 4.53 µM) | 4.3 µg/mL (≈ 2.43 µM) | 8.0 µg/mL (≈ 4.53 µM) | 16 µg/mL (≈ 9.06 µM) | 9.5 µg/mL (≈ 5.38 µM) | CNC(CC(C)C)C(=O)NC1C(=O)NC(CC(N)=O)C(=O)NC2C(=O)NC3C(=O)NC(C(=O)NC(C(=O)O)c4cc(O)cc(O)c4-c4cc3ccc4O)C(OC3CC(C)(N)C(O)C(C)O3)c3ccc(c(Cl)c3)Oc3cc2cc(c3OC2OC(CO)C(O)C(O)C2OC2CC(C)(NCc3ccc(OC(F)(F)F)cc3)C(O)C(C)O2)Oc2ccc(cc2Cl)C1O (stereo not shown) [Compound 6, 4-trifluoromethoxybenzyl] | ≤ 0.06 µg/mL |  | ≤ 0.06 µg/mL |  |  |

| SMILES | MIC (Lactobacillus confusus) | MIC (Leuconostoc lactis) | MIC (Pedicoccus acidilacti) | MIC (Pediococcus pentosaceus) | MIC [1] | MIC [4] | MIC [2] | MIC (Entercoccus faecalis 276) | MIC [3] | MIC (Leuconostoc citreum) | also measured |
| --- | --- | --- | --- | --- | --- | --- | --- | --- | --- | --- | --- |
| CNC(CC(C)C)C(=O)NC1C(=O)NC(CC(N)=O)C(=O)NC2C(=O)NC3C(=O)NC(C(=O)NC(C(=O)O)c4cc(O)cc(O)c4-c4cc3ccc4O)C(OC3CC(C)(N)C(O)C(C)O3)c3ccc(c(Cl)c3)Oc3cc2cc(c3OC2OC(CO)C(O)C(O)C2OC2CC(C)(NCc3cccc(Oc4ccccc4)c3)C(O)C(C)O2)Oc2ccc(cc2Cl)C1O (stereo not shown) [Compound 49, 3-phenoxybenzyl] | 64 µg/mL (≈ 36.1 µM) | 64 µg/mL (≈ 36.1 µM) | 55 µg/mL (≈ 31 µM) | 64 µg/mL (≈ 36.1 µM) |  | 64 µg/mL (≈ 36.1 µM) | 1 µg/mL (≈ 0.563 µM) | 0.25 µg/mL (≈ 0.141 µM) | ≤ 0.06 µg/mL |  | MIC [5]: 1 µg/mL (≈ 0.563 µM); MIC [6]: ≤ 0.06 µg/mL; MIC [7]: 0.5 µg/mL (≈ 0.282 µM); MIC [8]: 0.125 µg/mL (≈ 0.0704 µM); MIC [9]: 0.125 µg/mL (≈ 0.0704 µM); MIC (Entercoccus faecium 180): 0.25 µg/mL (≈ 0.141 µM); MIC [10]: 1 µg/mL (≈ 0.563 µM); MIC [11]: > 64 µg/mL; MIC [12]: 1 µg/mL (≈ 0.563 µM); MIC [13]: ≤ 0.06 µg/mL; MIC [14]: 1 µg/mL (≈ 0.563 µM); MIC [15]: ≤ 0.06 µg/mL; MIC [16]: ≤ 0.06 µg/mL; MIC [17]: 2 µg/mL (≈ 1.13 µM); MIC (Escherichia coli EC14): > 64 µg/mL; MIC [18]: ≤ 0.06 µg/mL; MIC [19]: 1 µg/mL (≈ 0.563 µM); MIC [20]: ≤ 0.06 µg/mL |
| CN[C@H](CC(C)C)C(=O)N[C@H]1C(=O)N[C@@H](CC(N)=O)C(=O)N[C@H]2C(=O)N[C@H]3C(=O)N[C@H](C(=O)N[C@H](C(=O)O)c4cc(O)cc(O)c4-c4cc3ccc4O)[C@H](O)c3ccc(c(Cl)c3)Oc3cc2cc(c3O[C@@H]2O[C@H](CO)[C@@H](O)[C@H](O)[C@H]2O[C@H]2C[C@](C)(N)[C@H](O)[C@H](C)O2)Oc2ccc(cc2Cl)[C@H]1O [vancomycin, reference compound] | 1024 µg/mL (≈ 707 µM) | 1024 µg/mL (≈ 707 µM) | 891 µg/mL (≈ 615 µM) | 1024 µg/mL (≈ 707 µM) | > 1024 µg/mL | 1024 µg/mL (≈ 707 µM) | 4 µg/mL (≈ 2.76 µM) | 1 µg/mL (≈ 0.69 µM) | 2 µg/mL (≈ 1.38 µM) | > 1024 µg/mL |  |
| CNC(CC(C)C)C(=O)NC1C(=O)NC(CC(N)=O)C(=O)NC2C(=O)NC3C(=O)NC(C(=O)NC(C(=O)O)c4cc(O)cc(O)c4-c4cc3ccc4O)C(OC3CC(C)(N)C(O)C(C)O3)c3ccc(c(Cl)c3)Oc3cc2cc(c3OC2OC(CO)C(O)C(O)C2OC2CC(C)(NCc3ccc(-c4ccc(-c5ccccc5)cc4)cc3)C(O)C(C)O2)Oc2ccc(cc2Cl)C1O (stereo not shown) [Compound 36, 4-[4-biphenyl]benzyl] | 32 µg/mL (≈ 17.4 µM) | 16 µg/mL (≈ 8.72 µM) | 9.2 µg/mL (≈ 5.01 µM) | 16 µg/mL (≈ 8.72 µM) | 32 µg/mL (≈ 17.4 µM) | 16 µg/mL (≈ 8.72 µM) | 0.25 µg/mL (≈ 0.136 µM) | 2 µg/mL (≈ 1.09 µM) | 1 µg/mL (≈ 0.545 µM) | 32 µg/mL (≈ 17.4 µM) |  |
